According to patent US4421767A, “Compounds and methods for treating depression” (priority 1982, dated 1983):
Like-named read-outs stand apart in the source and are kept apart here.

System: heart rate and blood pressure responses to tyramine
Type: in vivo, rat
Settings: for Tyramine Potentiation: 5 days, tyramine i.d.; for Tyramine Potentiation over and above that of carbidopa: figure in brackets
Protocol: (B) Rats were gavaged with saline or carbidopa given at dosage of 10 or 100 mg/kg. Thirty minutes later, the rats were gavaged with saline or AFHBA given at a dosage of 62.5 μg/kg. This treatment was repeated daily for 5 days. On the 6th day, the rats were anaesthetized and heart rate and blood pressure responses to tyramine (0.3-50 mg/kg, i.d.) were determined. Additionally, monoamines and MAO activity were determined in various tissues, including brain.

SMILES: NC(C(=O)O)C(=CF)c1cccc(O)c1 (racemic) [AFHBA, 2-Amino-4-fluoro-3-(3'-hydroxyphenyl)-3-butenoic acid]
- potentiation of the tyramine response, combination versus AFHBA alone (AFHBA 62.5 μg/kg + carbidopa 10 mg/kg): the potentiation did not exceed that of AFHBA given alone
- Tyramine Potentiation (carbidopa 10000 μg/kg + AFHBA 62.5 μg/kg daily p.o.): 3.1
- Tyramine Potentiation over and above that of carbidopa (carbidopa 10000 μg/kg + AFHBA 62.5 μg/kg): 2.8
- Tyramine Potentiation (carbidopa 100000 μg/kg + AFHBA 62.5 μg/kg daily p.o.): 5.0
- Tyramine Potentiation over and above that of carbidopa (carbidopa 100000 μg/kg + AFHBA 62.5 μg/kg): 2.2
- Tyramine Potentiation (saline + AFHBA 62.5 μg/kg daily p.o.): 4.0
